Here are results for 31 molecules from patent US8309577B2, “Quinuclidine compounds as α-7 nicotinic acetylcholine receptor ligands” (Bristol-Myers Squibb Company, priority 2008, dated 2012).

Read-outs that look alike come from different tables or passages of the source. Bounds are passed on as bounds.

The assay has as its target T1, α-7 nicotinic acetylcholine receptor channel expressed in HEK 293 cells (Rattus norvegicus, UniProt Q05941).
T1 construct: expressed in transfected cells
In words: Ca2+-sensitive fluorescence-based FLIPR assay, α7 nicotinic ACh receptor channel function (agonist). The class given is cell-based. As for the experimental part:
I) α7 Nicotinic Acetycholine Receptor Binding. Membranes were prepared for binding using HEK293 cells stably expressing the rat α7 nicotinic acetycholine receptor (rat α7 nAChR). Cells were homogenized at 4° C. in hypotonic lysis buffer consisting of 10 mM Tris (pH 7.4), 5 mM EDTA and protease inhibitors and centrifuged at 32000×g for 20 minutes. The pellet was washed once in membrane wash buffer consisting of 50 mM Tris (pH 7.4), 1 mM EDTA and protease inhibitors and centrifuged at 32000×g for 20 minutes. This pellet was then resuspended in assay buffer consisting 50 mM KH2PO4 (pH 7.4 at 25° C.), 1 mM EDTA, 0.005% Triton-X 100 and 0.1% (v/v) Sigma Protease Inhibitor Cocktail. Aliquots were then frozen in dry ice/ethanol and kept at −80° C. until the day of the assay. II) A Ca^2+-Sensitive, Fluorescence-Based Assay α-7 for Nicotinic Acetylcholine Receptor Channel Function In Mammalian Cells (“FLIPR”). Summary: Lead compounds are evaluated for agonist activity at […], α3β4, […], and α1β1δ1ε sub-types of nicotinic ACh receptor ion channels expressed in mammalian HEK 293 cells. Agonist potency and efficacy values are determined from kinetic fluorescence Ca^2+ influx measurements made using a 384 well FLIPR (Fluorescence Image Plate Reader). […] In this assay, channel expressing HEK cell lines seeded in 384 well assay plates are loaded with a membrane permeant fluorescent Ca^2+ indicator dye, whose 510 nm green emission signal increases in response to elevation of intracellular Ca^2+ concentration. The basal fluorescence from the cells is monitored in real time, followed by the acute addition of test compounds.
Materials and Methods: Reagents: The acetomethoxy (AM) ester of the Ca^2+ indicator dye Fluo-4 was obtained from InVitrogen, (Carlsbad, Calif.). Acetylcholine and all buffer constituents were purchased from Sigma Chemical Company, St. Louis, Mo. G418 and Minimal Essential Medium were purchased from InVitrogen Life Technologies, Carlsbad, Calif. Fetal bovine serum was purchased from (InVitrogen, Carlsbad, Calif.).
Cell Culture: HEK-293 cells were grown in Minimal Essential Medium containing 10% (v/v) fetal bovine serum at 37° C. in a 5% CO2 incubator. HEK-293 cells stably expressing the ion channels were grown in the same medium with the addition of 500 μg/ml G418.
Ca^2+ flux assays of Ca^2+ channels expressed in HEK-293 cells: HEK-293 cells expressing the ion channels of interest were plated in 384 well, black-walled, clear-bottomed, poly-D-lysine coated plates at a density of ˜20,000 cells/well in 20 μl of Minimal Essential Medium containing 10% (v/v) fetal bovine serum and incubated for 2 days at 29° C. in a 5% CO2 incubator. Prior to assay, cells were loaded with the Fluo-4 AM ester. […] Dye loading was allowed to proceed for 90 minutes at room temperature at which time the dye loading solution was removed and replaced with 40 μl/well of Hanks buffer. Cells loaded with dye were loaded onto a FLIPR384 (Molecular Devices, Sunnyvale, Calif.). Fluo-4 dye was excited using the 488 nm line of an argon laser. Emission was filtered using a 540+/−30 nm bandpass filter. For evaluation of the effects of test compounds using the Ca^2+ flux assay, compounds to be tested were provided in assay ready plates. For nicotinic receptor ion channel expressing cells, the assay was initiated by the addition of 20 μl/well of Hanks buffer containing test compounds. For all assays, data were collected at 1 Hz for 10 seconds (baseline), at which time the compound containing stimulus buffers are added, and further measurements collected at 0.33 Hz for 3 min.
Data Analysis: The statistical robustness of the nicotinic receptor Ca^2+ flux assays is determined from blanks and totals wells. […] The raw fluorescence units data files generated on the FLIPR plate reader are automatically exported and processed by in-house data analysis tools.

[1] abbreviates: FLIPR α7 activity rating (EC50, nM), Table 1, HEK 293 cells, agonist Ca2+ flux.
Where [2] appears, read: FLIPR α7 (EC50, nM), Table 1, HEK 293 cells, agonist Ca2+ flux.

T1 sequence (Q05941 23-502): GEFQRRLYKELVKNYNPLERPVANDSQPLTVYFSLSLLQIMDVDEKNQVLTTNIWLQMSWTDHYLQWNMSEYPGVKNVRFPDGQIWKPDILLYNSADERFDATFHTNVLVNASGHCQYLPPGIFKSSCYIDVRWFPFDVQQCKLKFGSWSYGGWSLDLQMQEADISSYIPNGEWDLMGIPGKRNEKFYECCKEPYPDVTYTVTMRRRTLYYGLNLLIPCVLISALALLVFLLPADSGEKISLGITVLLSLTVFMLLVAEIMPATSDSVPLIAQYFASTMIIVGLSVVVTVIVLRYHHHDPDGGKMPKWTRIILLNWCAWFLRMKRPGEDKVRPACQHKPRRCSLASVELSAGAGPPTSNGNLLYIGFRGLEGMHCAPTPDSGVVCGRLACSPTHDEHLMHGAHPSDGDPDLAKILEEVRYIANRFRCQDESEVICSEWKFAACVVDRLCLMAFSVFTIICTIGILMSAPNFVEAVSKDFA

In general, EC50 refers to the midpoint of the concentration-response curve. As to `Cc1ccc2nc(NC3=NCC4(CN5CCC4CC5)O3)sc2c1` (single isomer, unassigned) [Example 12a, N-(6-Methylbenzo[d]thiazol-2-yl)-4H-1′-azaspiro[oxazole-5,3′-bicyclo[2.2.2]octan]-2-amine], under setting [1], the EC50 was 100 to 1000 nM. The same measure, in the same setting: the same measure for `Cc1ccc2nc(NC3=NCC4(CN5CCC4CC5)O3)sc2c1` (single isomer, unassigned) [Example 12b, N-(6-Methylbenzo[d]thiazol-2-yl)-4H-1′-azaspiro[oxazole-5,3′-bicyclo[2.2.2]octan]-2-amine]: 1000 to 100000 nM; for `Oc1ccc2nc(NC3=NCC4(CN5CCC4CC5)O3)sc2c1` (single isomer, unassigned) [Example 13a]: 100 to 1000 nM. On the same count and under the same terms, the same measure for `Oc1ccc2nc(NC3=NCC4(CN5CCC4CC5)O3)sc2c1` (single isomer, unassigned) [Example 13b]: under 100 nM. The same measure, in the same setting: the same measure for `C1CCc2sc(NC3=NCC4(CN5CCC4CC5)O3)nc2C1` (single isomer, unassigned) [Example 14b]: 100 to 1000 nM.

`CC(C)c1csc(NC2=NCC3(CN4CCC3CC4)O2)n1` (single isomer, unassigned) [Example 15a] registered an EC50 under setting [2] of 6350 nM and an EC50 under setting [1] of 1000 to 100000 nM. As to `CC(C)c1csc(NC2=NCC3(CN4CCC3CC4)O2)n1` (single isomer, unassigned) [Example 15b], the EC50 under setting [1] lay within 100 to 1000 nM.

Consider `c1csc(NC2=NCC3(CN4CCC3CC4)O2)n1` (single isomer, unassigned) [Example 16a], for which the EC50 reads like this: under setting [2], 3170 nM; under setting [1], 1000 to 100000 nM. `c1csc(NC2=NCC3(CN4CCC3CC4)O2)n1` (single isomer, unassigned) [Example 16b]: the 50% effective concentration (EC50) under setting [1] was in the range of 100 to 1000 nM. As for `COc1ccc(-c2csc(NC3=NCC4(CN5CCC4CC5)O3)n2)cc1` (single isomer, unassigned) [Example 20a], the EC50 under setting [1] was 100 to 1000 nM. Regarding `COc1ccc(-c2csc(NC3=NCC4(CN5CCC4CC5)O3)n2)cc1` (single isomer, unassigned) [Example 20b], the midpoint of the response under setting [2], the EC50, lay at 318 nM and the EC50 (read-out: FLIPR α7 activity rating (EC50), Table 1, HEK 293 cells, agonist Ca2+ flux) lay in the range of 100 to 1000 nM. Take `O=C(c1ccc2nc(NC3=NCC4(CN5CCC4CC5)O3)sc2c1)N1CCCC1` (centres unmarked) [Example 3]: the EC50 was 3840 nM. Also, the EC50 under setting [1] is 1000 to 100000 nM. Under setting [1], `COc1ccc2nc(NC3=NCC4(CN5CCC4CC5)O3)sc2c1` (centres unmarked) [Example 5, N-(6-Methoxybenzo[d]thiazol-2-yl)-4H-1′-azaspiro[oxazole-5,3′-bicyclo[2.2.2]octan]-2-amine] gave an EC50 of 100 to 1000 nM.

Molecule `Cc1cccc2sc(NC3=NCC4(CN5CCC4CC5)O3)nc12` (centres unmarked) [Example 6, N-(4-Methylbenzo[d]thiazol-2-yl)-4H-1′-azaspiro[oxazole-5,3′-bicyclo[2.2.2]octan]-2-amine] registered an EC50 under setting [1] of 100 to 1000 nM.

Regarding `Clc1ccc2nc(NC3=NCC4(CN5CCC4CC5)O3)sc2c1` (centres unmarked) [Example 9, N-(6-Chlorobenzo[d]thiazol-2-yl)-4H-1′-azaspiro[oxazole-5,3′-bicyclo[2.2.2]octan]-2-amine], under setting [1], the EC50 was 100 to 1000 nM. On the same count and under the same terms, the same measure for `Cn1c(NC2=NCC3(CN4CCC3CC4)O2)nc2ccccc21` (centres unmarked) [Example 10, N-(1-methyl-1H-benzo[d]imidazol-2-yl)-4H-1′-azaspiro[oxazole-5,3′-bicyclo[2.2.2]octan]-2-amine]: 100 to 1000 nM; for `CCOc1ccc2nc(NC3=NCC4(CN5CCC4CC5)O3)sc2c1` (centres unmarked) [Example 11, N-(6-Ethoxybenzo[d]thiazol-2-yl)-4H-1′-azaspiro[oxazole-5,3′-bicyclo[2.2.2]octan]-2-amine]: 100 to 1000 nM.

`Cc1ccc2nc(NC3=NCC4(CN5CCC4CC5)O3)sc2c1` (centres unmarked) [Example 12, N-(6-Methylbenzo[d]thiazol-2-yl)-4H-1′-azaspiro[oxazole-5,3′-bicyclo[2.2.2]octan]-2-amine] showed a 50% effective concentration (EC50) under setting [1] of 100 to 1000 nM.

In turn, `CC(=O)Nc1ccc2nc(NC3=NC[C@@]4(CN5CCC4CC5)O3)sc2c1` [Example 21, (R)—N-(2-(4H-1′-Azaspiro[oxazole-5,3′-bicyclo[2.2.2]octane]-2-ylamino)benzo[d]thiazol-6-yl)acetamide] came in with an EC50 under setting [1] of under 100 nM. Same read-out and setting: the same measure for `COc1ccc2nc(NC3=NC[C@@]4(CN5CCC4CC5)O3)nn2c1` [Example 24, (R)—N-(6-Methoxy-[1,2,4]-triazolo[1,5-a]pyridin-2-yl)-4H-1′-azaspiro[oxazole-5,3′-bicyclo[2.2.2]octan]-2-amine]: under 100 nM. As for `FC(F)(F)c1cnc(NC2=NC[C@@]3(CN4CCC3CC4)O2)cn1` [Example 25, (R)—N-(5-(Trifluoromethyl)pyrazin-2-yl)-4H-1′-azaspiro[oxazole-5,3′-bicyclo[2.2.2]octan]-2-amine], it took 510 nM to reach a half-maximal effect under setting [2] (EC50) and the EC50 under setting [1] lay in the range of 100 to 1000 nM.

As to `Fc1ccc2c(NC3=NC[C@@]4(CN5CCC4CC5)O3)n[nH]c2c1` [Example 26, (R)—N-(6-Fluoro-1H-indazol-3-yl)-4H-1′-azaspiro[oxazole-5,3′-bicyclo[2.2.2]octan]-2-amine], the EC50 under setting [1] is under 100 nM. Molecule `c1ccc(-c2cncc(NC3=NC[C@@]4(CN5CCC4CC5)O3)c2)cc1` [Example 28, (R)—N-(5-Phenylpyridin-3-yl)-4H-1′-azaspiro[oxazole-5,3′-bicyclo[2.2.2]octan]-2-amine] displayed an EC50 of 4010 nM. Further, the EC50 under setting [1] fell in the range of 1000 to 100000 nM.

Take `c1ccc(-c2cc(NC3=NC[C@@]4(CN5CCC4CC5)O3)ccn2)cc1` [Example 29, (R)—N-(2-Phenylpyridin-4-yl)-4H-1′-azaspiro[oxazole-5,3′-bicyclo[2.2.2]octan]-2-amine]: the EC50 under setting [1] lay in the range of 100 to 1000 nM. On the same count and under the same terms, the figure for `c1ccc(-c2cccc(NC3=NC[C@@]4(CN5CCC4CC5)O3)n2)cc1` [Example 30, (R)—N-(6-Phenylpyridin-2-yl)-4H-1′-azaspiro[oxazole-5,3′-bicyclo[2.2.2]octan]-2-amine] is 100 to 1000 nM; for `Cn1nc(NC2=NC[C@@]3(CN4CCC3CC4)O2)c2ccc(OC(F)F)cc21` [Example 31, (R)—N-(6-(Difluoromethoxy)-1-methyl-1H-indazol-3-yl)-4H-1′-azaspiro[oxazole-5,3′-bicyclo[2.2.2]octan]-2-amine] it is 100 to 1000 nM; for `FC(F)Oc1ccc2nc(NC3=NC[C@@]4(CN5CCC4CC5)O3)sc2n1` [Example 32, (R)—N-(5-(Difluoromethoxy)thiazolo[5,4-b]pyridin-2-yl)-4H-1′-azaspiro[oxazole-5,3′-bicyclo[2.2.2]octan]-2-amine] it is 100 to 1000 nM. Under setting [1], `c1nc(N2CCCC2)cnc1NC1=NC[C@@]2(CN3CCC2CC3)O1` [Example 34, (R)—N-(5-(Pyrrolidin-1-yl)pyrazin-2-yl)-4H-1′-azaspiro[oxazole-5,3′-bicyclo[2.2.2]octan]-2-amine] came in with an EC50 of 1000 to 100000 nM. The molecule `O=C1CCCN1c1cnc(NC2=NC[C@@]3(CN4CCC3CC4)O2)cn1` [Example 35, (R)-1-(5-(4H-1′-Azaspiro[oxazole-5,3′-bicyclo[2.2.2]octane]-2-ylamino)pyrazin-2-yl)pyrrolidin-2-one] came in with an EC50 of 4030 nM. Under setting [1], this molecule returned a half-maximal effective concentration (EC50) of 1000 to 100000 nM. As to `c1cncc(-c2cnc(NC3=NC[C@@]4(CN5CCC4CC5)O3)cn2)c1` [Example 36, (R)—N-(5-(Pyridin-3-yl)pyrazin-2-yl)-4H-1′-azaspiro[oxazole-5,3′-bicyclo[2.2.2]octan]-2-amine], under setting [1], the EC50 was 100 to 1000 nM. Same read-out and setting: the same measure for `COc1ccc(-c2cnc(NC3=NC[C@@]4(CN5CCC4CC5)O3)cn2)cn1` [Example 37, (R)—N-(5-(6-Methoxypyridin-3-yl)pyrazin-2-yl)-4H-1′-azaspiro[oxazole-5,3′-bicyclo[2.2.2]octan]-2-amine]: 1000 to 100000 nM.
